Measured values from PubChem BioAssay (NCI).
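1) Cells in 96-well plates. 2) Compound, 48 h, 5 concentrations. 3) Linear interpolation between surrounding doses. 4) Unreached endpoint = highest concentration. At the TGI there is no net growth.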

Experiments:
Test in all cases: NCI anticancer screen, dose series, 48 h
HOP-62 NSCLC = system: HOP-62 NSCLC
SK-MEL-5 melanoma = system: SK-MEL-5 melanoma
MALME-3M melanoma = system: MALME-3M melanoma
U251 CNS = system: U251 CNS
786-0 renal = system: 786-0 renal
NCI-H460 lung = system: NCI-H460 lung
A549 NSCLC = system: A549 NSCLC
UACC-257 melanoma = system: UACC-257 melanoma
RXF 393 renal = system: RXF 393 renal
SK-MEL-2 melanoma = system: SK-MEL-2 melanoma
SF-539 CNS = system: SF-539 CNS

Structure (SMILES) | TGI (HOP-62 NSCLC) | TGI (SK-MEL-5 melanoma) | TGI (MALME-3M melanoma) | TGI (U251 CNS) | TGI (786-0 renal) | TGI (NCI-H460 lung) | TGI (A549 NSCLC) | TGI (UACC-257 melanoma) | TGI (RXF 393 renal) | TGI (SK-MEL-2 melanoma) | TGI (SF-539 CNS)
CN1CCC2(CC1)C(=NC1CCCCC1)NC(=O)N2c1ccccc1 | > 100 µM | > 100 µM | > 100 µM | > 100 µM | > 100 µM | > 100 µM | > 100 µM | > 100 µM | > 100 µM | – | –
CC1(C)CC(=O)C2=C(C1)OC1(CC2c2ccc(Cl)cc2)CC(c2ccc(Cl)cc2)C2=C(CC(C)(C)CC2=O)O1 (stereo not drawn) | 34.2 µM | 31.4 µM | 30.1 µM | > 57.6 µM | 35.9 µM | > 65.1 µM | 30.9 µM | > 61.7 µM | 94.3 µM | 43.8 µM | > 51.3 µM
CCOC(=O)C(C(=O)COC(C)(C)C)[C@@H]1C=C[C@H](OC(C)=O)C1 (stereo partly drawn) | > 100 µM | – | > 100 µM | > 100 µM | > 100 µM | > 100 µM | > 100 µM | > 100 µM | – | > 100 µM | > 100 µM
CN(C)CCNC(=O)c1c(O)ccc2c1c1c(n2CCc2ccccc2)C(=O)c2ccccc2C1=O | 23.1 µM | 7.21 µM | 9.35 µM | 13.9 µM | 11.3 µM | 11.4 µM | 23.2 µM | 10.4 µM | 5.17 µM | 10.7 µM | 11.1 µM
O=C1C=C(N2CCN(CCOCCO)CC2)C(=O)c2c(O)ccc(O)c21 | 32.7 µM | 3.12 µM | 2.91 µM | 15.9 µM | 21.7 µM | 21.4 µM | 11.4 µM | 3.11 µM | 28.8 µM | 18.5 µM | 25.6 µM
C=CC[C@H](N=C(SC)SC)C(=O)N1C(=O)N(C)[C@@H](C)[C@H]1c1ccccc1 | > 100 µM | > 100 µM | > 100 µM | > 100 µM | > 100 µM | > 100 µM | > 100 µM | > 100 µM | > 100 µM | 91.2 µM | > 100 µM
Cc1cc2ccc(N)nc2[nH]c1=O | – | > 100 µM | > 100 µM | > 100 µM | > 100 µM | > 100 µM | > 100 µM | > 100 µM | > 100 µM | > 100 µM | > 100 µM
O=C(Nc1ccc2ccccc2c1)c1cc2cc(CCl)ccc2oc1=O | > 100 µM | > 100 µM | > 100 µM | > 100 µM | > 100 µM | > 100 µM | > 100 µM | > 100 µM | 54.1 µM | 63.3 µM | –
COc1ccc2c(c1)CCC/C2=N\NS(=O)(=O)c1c(C)cc(C)cc1C | > 100 µM | 33.4 µM | 48.8 µM | > 100 µM | 37.8 µM | 95.3 µM | > 100 µM | > 100 µM | – | > 100 µM | 41.5 µM
Cc1ccc(/C=C2\N=C(N3CCCC(CO)C3)NC2=O)cc1 (stereo not drawn) | > 100 µM | > 100 µM | > 100 µM | > 100 µM | > 100 µM | – | > 100 µM | > 100 µM | > 100 µM | > 100 µM | > 100 µM
Cc1ccccc1NC(=O)Cc1csc(N=Nc2c(O)[nH]c3ccccc23)n1 | – | > 100 µM | > 100 µM | > 1 µM | > 100 µM | > 100 µM | > 100 µM | > 100 µM | 69.5 µM | > 100 µM | 32.3 µM
CC(C)(C)C1=C(Br)C(OC(=O)C(F)(F)F)(C(C)(C)C)OP1(=O)c1ccccc1 (stereo not drawn) | 76.8 µM | > 100 µM | > 100 µM | > 100 µM | > 100 µM | > 100 µM | > 100 µM | > 100 µM | – | > 100 µM | > 100 µM
CCn1c2ccccc2c2cc(Nc3cc(C)[nH]c(=O)n3)ccc21 | > 100 µM | – | > 100 µM | > 100 µM | > 100 µM | > 100 µM | > 100 µM | > 100 µM | > 100 µM | > 100 µM | > 100 µM
O=C(O)c1ccc(N/C(=C(/C(Cl)=C(Cl)Cl)[N+](=O)[O-])n2nnc3ccccc32)cc1 | > 100 µM | – | > 100 µM | > 100 µM | > 100 µM | > 100 µM | > 100 µM | > 100 µM | – | > 100 µM | > 100 µM
Cc1c(O)c(=O)ccn1CCc1ccc(O)cc1 | > 100 µM | 51.7 µM | 65.8 µM | > 100 µM | 27.8 µM | 52.9 µM | > 100 µM | 54.8 µM | – | – | 62.5 µM
CC[C@@]1(O)C(=O)OCc2c1cc1n(c2=O)Cc2c-1nc1ccccc1c2/C=N\NC(=O)C(N)Cc1c[nH]c2ccccc12 (stereo partly drawn) | – | 2.49 µM | > 48.9 µM | 5.16 µM | > 21.7 µM | 6.42 µM | 25.9 µM | > 38 µM | 1.21 µM | 36.3 µM | 0.584 µM

Structure (SMILES) | TGI (HOP-62 NSCLC) | TGI (SK-MEL-5 melanoma) | TGI (MALME-3M melanoma) | TGI (U251 CNS) | TGI (786-0 renal) | TGI (NCI-H460 lung) | TGI (A549 NSCLC) | TGI (UACC-257 melanoma) | TGI (RXF 393 renal) | TGI (SK-MEL-2 melanoma) | TGI (SF-539 CNS)
N#Cc1nc(-c2cccc(-c3nc(C#N)c(N)o3)n2)oc1N | > 100 µM | > 100 µM | > 100 µM | > 100 µM | > 100 µM | > 100 µM | > 100 µM | > 100 µM | – | > 100 µM | > 100 µM
COc1ccccc1NC(=S)N/N=C/c1cccc(C)n1 | > 62.9 µM | 47.3 µM | > 81.2 µM | > 87.1 µM | 96.9 µM | > 85.5 µM | 86.9 µM | > 100 µM | – | > 100 µM | 28.1 µM
CC/C(N)=N\NC(=O)OC(C)(C)C | > 100 µM | > 100 µM | > 100 µM | > 100 µM | > 100 µM | – | > 100 µM | > 100 µM | > 100 µM | > 100 µM | > 100 µM
O=[N+]([O-])C(C=C(n1nnc2ccccc21)n1nnc2ccccc21)=C(n1nnc2ccccc21)n1nnc2ccccc21 | > 100 µM | – | > 100 µM | > 100 µM | > 100 µM | > 100 µM | > 100 µM | – | > 100 µM | – | > 100 µM
Cc1ccc(S(=NS(=O)(=O)c2ccc(C)cc2)c2ccc(C)cc2)cc1 | > 100 µM | – | > 100 µM | > 100 µM | > 100 µM | > 100 µM | > 100 µM | > 100 µM | > 100 µM | – | > 100 µM
COC(=O)C(NC(=O)OC(C)(C)C)P(=O)(OC)OC (stereo not drawn) | > 100 µM | > 100 µM | > 100 µM | > 100 µM | > 100 µM | – | > 100 µM | > 100 µM | > 100 µM | > 100 µM | –
O=[N+]([O-])/C(C(Cl)=C(Cl)Cl)=C(/Nc1ccccc1)Sc1ccccc1 | 62 µM | 36.7 µM | 31.8 µM | 27.7 µM | 46.5 µM | 41.6 µM | 50.2 µM | 35.6 µM | 40.3 µM | – | 52.3 µM
COC(=O)c1ccc(NCC2=C(Br)C(=O)C=CC2=O)cc1Cl | – | 41.1 µM | 28.4 µM | 43.6 µM | 26.1 µM | 32.2 µM | > 100 µM | 72.2 µM | – | 52.6 µM | 35.7 µM
O=C1C(c2c(O)[nH]c3ccc(S(=O)(=O)NCCO)cc23)=Nc2ccccc21 | > 100 µM | > 100 µM | > 100 µM | 12.9 µM | 28.9 µM | > 100 µM | > 100 µM | > 100 µM | 18.9 µM | 17.9 µM | –
CCCCC[C@H]1CCCCCCCCCC(=O)OC2C(O[C@@H]3OC(C)[C@H](OC(=O)[C@@H](C)CC)C(O[C@@H]4OC(C)[C@H](O)C(O)[C@@H]4O)[C@@H]3OC(=O)[C@H](C)CC)[C@H](OC3C(O)[C@@H](O)C(C)O[C@H]3O1)OC(CO)[C@H]2O (stereo partly drawn) | 32.8 µM | 30.9 µM | 28.8 µM | 32.1 µM | 31.7 µM | 32.5 µM | 31.2 µM | 29.2 µM | – | 30.5 µM | –
S=c1nc[nH]c2c1ncn2C1CCCO1 (stereo not drawn) | > 100 µM | > 100 µM | > 100 µM | > 100 µM | > 100 µM | > 100 µM | > 100 µM | – | > 100 µM | > 100 µM | > 100 µM
O=c1cc(N2CCCC2)[nH]c(=O)n1-c1ccc(Cl)cc1 | > 100 µM | – | > 100 µM | > 100 µM | > 100 µM | > 100 µM | > 100 µM | > 100 µM | > 100 µM | > 100 µM | > 100 µM
CN(C)/C=C/C=C(/C=N/S(=O)(=O)C(F)(F)F)C1C=CN(S(=O)(=O)C(F)(F)F)C=C1 | > 100 µM | 51.7 µM | 82.7 µM | > 100 µM | > 100 µM | > 100 µM | > 100 µM | 77.7 µM | – | 54.1 µM | –
CCOC(=O)CCC(NC(=O)c1ccc(Nc2nc3ccccc3nc2C(=O)OCC)cc1)C(=O)OCC (stereo not drawn) | 12.4 µM | > 100 µM | 26.3 µM | 9.66 µM | 3.46 µM | > 100 µM | 14.3 µM | > 100 µM | – | 24.4 µM | 5.62 µM
NS(=O)(=O)c1ccc(N=Nc2ccc(O)c(C(=O)O)c2)cc1 | > 100 µM | > 100 µM | > 100 µM | > 100 µM | > 100 µM | > 100 µM | > 100 µM | > 100 µM | > 100 µM | > 100 µM | –
